As a reminder, the IC50 is the concentration that gives 50% inhibition. The term viability denotes a read-out of living cells in per cent, often relative to untreated cells.

In brackets after ≈: the same amount, converted by molar mass. Read-outs that look alike come from different tables or passages of the source.

One series relates to brine shrimp nauplii. Briefly: Brine shrimp lethality bioassay. The series is classed as in vivo. To be noted: 24 h, n = 3. The essentials:
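Ten hatched nauplii per well in artificial seawater were exposed to test compounds at 400, 200, 100 and 50 µg/mL under a lamp. Survivors counted after 24 h; percentage mortality calculated; triplicate.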

In a further series the test system is raw macrophages. Briefly: MTT cytotoxicity against raw macrophages. To be noted: mean ± SEM, n = 3. The series is classed as cell-based, albino rats. The essentials: (§1)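 Peritoneal macrophages from albino rats were treated for 24 h at 37 °C, 5% CO2 with test compounds at 100, 50, 10 and 1 µM or vehicle, from DMSO stocks. MTT was then added for 2 h, formazan dissolved in DMSO and absorbance read at 570 nm. % viability = blank-corrected sample over blank-corrected control ×100.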

Series [1] can be described thus: MTT cytotoxicity against raw macrophages. To be noted: albino, rat; for viability at 24 h, 1 µM / viability at 24 h, 10 µM / viability at 24 h, 50 µM / viability at 24 h, 100 µM: peritoneal macrophages (raw macrophages), raw macrophages, MTT, read-out: % Cell Viability; for IC50 at 24 h: primary peritoneal macrophages, mean ± SEM, n = 3. The series is classed as cell-based, albino rats. The essentials:
as §1

Series [2] deals with NO generated by LPS-induced macrophages. Nature of the series: Nitric oxide assay (Griess) in LPS-induced macrophages. To be noted: Mus musculus, Macrophage, 18 h, LPS 1 µg/mL, read-out: % NO Production (Mean ± SEM). The series is classed as cell-based, murine. The essentials: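 Murine macrophages (1 × 10^6/well) pre-treated 2 h with compound at 100, 50, 10 or 1 µM, then LPS 1 µg/mL for 18 h. Nitrite in medium measured with Griess reagent at 540 nm against a NaNO2 standard curve; piroxicam as positive control, t-test for significance.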
(In general: The Griess reaction detects nitrite, a stable product of nitric oxide.)

A short description of series [3]: DPPH free radical scavenging assay. To be noted: mean ± SEM, n = 3; for IC50 (DPPH radical scavenging): concentration to scavenge 50% of the DPPH radicals. The essentials: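 Compounds at 200, 66.6, 22.2 and 7.4 µg/mL were mixed with DPPH radical, with DMSO as the negative control. Absorbance was read at 630 nm, and % scavenging was calculated as (1 − Abs/Abc) × 100 against the control.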
(In general: Loss of DPPH colour is used to gauge radical scavenging.)

The next series relates to Hep-2C cells. Briefly: MTT assay against Hep-2C cells. Format: cell-based, Human. To be noted: Homo sapiens, Hep2C, read-out: IC50 (Mean ± SEM) Hep-2C Cells. The method, then:
Hep-2C cell line experiments were performed in the Immunology Lab of the National Institute of Health (NIH), Islamabad, Pakistan. Human cervix carcinoma cells Hep-2C (ATCC HB-8065) were cultured in Dulbecco’s modified Eagle’s medium (DMEM), comprising 10% fetal calf serum (10% FCS) and supplemented with 2 mM L-glutamine, 100 U/mL penicillin, 100 µg/mL streptomycin and 1 mM Na pyruvate, at 37 °C in a humidified 5% CO2 incubator.
The tetrazolium dye 3-(4, 5-dimethyl thiazolyl-2)-2, 5-diphenyltetrazolium bromide (MTT) was used to assess the cytotoxic potential of the test compounds. In living cells, MTT is reduced into its insoluble purple product formazan, which is measured spectrophotometrically.
Hep-2C cells, in a density of 1 × 10^6 (> 90% cell viability), were cultured in a 96-well plate and treated with different concentrations of the test compounds for 24, 48 and 72 h. Ten microliters of MTT (1 mg per mL) were added per well followed by incubation for 4 h. Insoluble formazan crystals were dissolved by adding 100 µL of DMSO. Cells were then incubated for another 2 h. Absorbance was measured at 570 nm by a microplate reader. Untreated Hep-2C cells were taken as controls and DMSO as a negative. % cell viability = (abssample − absblank)/(abscontrol − absblank) × 100
Background: Tetrazolium dyes change colour on reduction, which living cells bring about.

The nature of series [4]: Total reducing power (TRP) assay. The method, then:
A TRP assay was carried out to evaluate the reducing potential of synthetic compounds. The method implicates reductones. These reductones are species with antioxidant potential that is believed to be due to their proton-donating capacity. […] The maximum value of reducing power was 104.7 ± 1.9 µg/AAE for SF5, followed by 103.18 ± 2.4 µg/AAE for SF7 and 84.57 ± 1.9 µg/AAE for SF12 (Figure 3 and Figure 4 (standard curve)).
The assay is based on the reduction of Fe^+3 to Fe^+2. The method described by Khan et al. was used with slight modifications. One hundred microliters of test samples (4 mg/mL DMSO) were taken in an Eppendrof tube and 200 μL of phosphate buffer (0.2 mol/L, pH 6.6) and 250 µL of 1% potassium ferricyanide (K3Fe CN)6) were added. This was allowed to incubate at 50 °C for 20 min. Later on, 200 μL of 10% trichloroacetic acid (TCA) was added to the mixture. The mixture was centrifuged at 3000 rpm at room temperature for 10 min. After centrifugation, 150 µL of supernatant were transferred to microplate with FeCl3 (50 μL, 0.1%) and the absorbance was taken at 630 nm. The results were calculated as µg AAE/mg.

A short description of series [5]: Phosphomolybdenum-based total antioxidant capacity (TAC). The method, then:
In the presence of an antioxidant, the phosphomolybdate ion gets reduced and a green phosphate–molybdate complex is formed, which is analyzed spectrophotometrically.
The total antioxidant capacity was determined by using the phosphomolybdenum-based method. The method is based on the reduction of Mo (VI) to Mo (V), leading to the formation of a green-colored phosphate–molybdenum complex that gives absorption at 630 nm. In 96-well plates, 20 µL of the sample was added with 180 µL TAC reagents in it and incubated at 95 °C for 90 min in a water bath and cooled at room temperature. The results were calculated as µg AAE/mg.

Turning to `CCCN(CCC)CN1CCCc2ccccc21` [SF4, N-((3,4-dihydroquinolin-1(2H)-yl), methyl)-N-propylpropan-1 amine], the “LD50 ± SEM (brine shrimp lethality)” value in the series on brine shrimp nauplii is reported as 100 ± 1.78 µg/mL. Also, the concentration for half-maximal inhibition (IC50) in the series with raw macrophages was determined as 7.2 ± 0.05 µM. In addition, in series [1], the viability at 24 h, 1 µM was 79 ± 0.92%; the viability at 24 h, 10 µM amounted to 53 ± 0.63%; the viability at 24 h, 50 µM is 42 ± 0.87%; the viability at 24 h, 100 µM was 39 ± 0.88%. In series [1], this molecule yielded an IC50 at 24 h of 7.208 ± 0.05 µM. In series [2], the activity at 1 µM was determined as 43.03 ± 0.41%, the activity at 10 µM was found to be 39.17 ± 0.38%, the activity at 50 µM came to 32.05 ± 0.31% and the activity at 100 µM was 20.2 ± 0.28%. Moreover, the “% DPPH Scavenging Activity” value in series [3] (7.4 µg/mL) came out at 18.12 ± 0.20%. In addition, the “% DPPH Scavenging Activity” value in series [3] (22.22 µg/mL) is recorded as 41.63 ± 0.28%. Moreover, the “% DPPH Scavenging Activity” value in series [3] (66.66 µg/mL) is reported as 53.65 ± 0.14%. The “% DPPH Scavenging Activity” value in series [3] (200 µg/mL) was 58.58 ± 0.33%. The “IC50 (DPPH radical scavenging)” value in series [3] was found to be 29.79 ± 0.26 µg/mL (≈ 121 µM). The IC50 in the series on Hep-2C cells (24 h) amounted to 23.9 ± 1.07 µM. In addition, the IC50 in the series on Hep-2C cells (48 h) was found to be 21.2 ± 1.2 µM. In addition, the half-inhibitory concentration (IC50) with Hep-2C cells (72 h) worked out at 15.5 ± 1.03 µM.
As for `COc1ccc(NCN2CCCc3ccccc32)cc1` [SF12, N-((3,4-dihydroquinolin-1(2H)-yl)methyl)-4-methoxyaniline], in series [4], the “Total reducing power (TRP)” value came out at 84.57 ± 1.9 µg/AAE. Also, the “LD50 ± SEM (brine shrimp lethality)” value with brine shrimp nauplii stood at 128 ± 1.87 µg/mL. For the same molecule, the “Total antioxidant capacity (TAC)” value in series [5] was 191.19 ± 1.1231 µg/AAE. Also, in series [1], the viability at 24 h, 1 µM came out at 87 ± 0.82%; the viability at 24 h, 10 µM came out at 84 ± 0.87%; the viability at 24 h, 50 µM came to 57 ± 0.89%; the viability at 24 h, 100 µM worked out at 41 ± 0.86%. This molecule displayed a half-inhibitory concentration (IC50) at 24 h in series [1] of 35.1 ± 0.5 µM. Besides, in series [2], the activity at 1 µM was 49.7 ± 0.61%, the activity at 10 µM amounted to 32.3 ± 0.59%, the activity at 50 µM was found to be 26.5 ± 0.578% and the activity at 100 µM is 23.2 ± 0.55%. The “% DPPH Scavenging Activity” value in series [3] (7.4 µg/mL) came out at 11.24 ± 0.11%. Besides, the “% DPPH Scavenging Activity” value in series [3] (22.22 µg/mL) stood at 31.80 ± 0.42%. In series [3] (66.66 µg/mL), the “% DPPH Scavenging Activity” value worked out at 54.10 ± 0.17%. The “% DPPH Scavenging Activity” value in series [3] (200 µg/mL) was found to be 64.20 ± 0.31%. Besides, the “IC50 (DPPH radical scavenging)” value in series [3] worked out at 39.33 ± 0.28 µg/mL (≈ 147 µM).
